Here are results for 9 compounds from ChEMBL document CHEMBL1201862, “PubChem BioAssay data set” (2004).

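Step 1: Grow cells in 96-well plates. Step 2: Expose to compound for 48 hours at 5 concentrations. Step 3: Interpolate endpoints linearly; if unreached, use highest concentration. At the GI50, growth is halved.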 Activity calls are given as the source filed them. Cut-off read from the data, not from the text of the source: active = GI50 up to about 1.1 µM and inactive = higher. Starred links: 1 amine or outer side, 2 acyl side, 3 side chain; linkers in the order of their positions; H or OH if unused. Positions of bridges follow the written chain, without caps; N, C: chain ends. Non-standard residues stand in square brackets, D forms with d. Residues, ends and D or L forms follow the SMILES beside them. Chains are numbered I, II in the order given. Actinocin(1to9) = Cc1c2oc3c(C)ccc(C(=O)[*:2])c3nc-2c(C(=O)[*:1])c(N)c1=O; NMeV = CN[CH](C(=O)O)C(C)C; Sar = CNCC(=O)O Some results are limits rather than exact numbers.

Test systems include COLO 205; DU-145; HCC 2998; HOP-92; IGROV-1; K562; KM12; Malme-3M; NCI-H23; NCI-H522; OVCAR-3; OVCAR-5; RPMI-8226; SF-539; SK-MEL-28; SK-OV-3; SNB-19; U-251; UACC-257; UACC-62.
What all share (test): DTP human tumour cell line panel, 48 h

As for `CC1=C(C)CC(C#N)(C#N)C(C#N)(C#N)C1`, the GI50 was 4.21 µM (inactive) in the assay with COLO 205; > 10 µM (inactive) in the assay on DU-145; > 10 µM (inactive) in the assay with HCC 2998; > 3.28 µM (inactive) in the assay with HOP-92; > 3.83 µM (inactive) in the assay on IGROV-1; 2.2 µM (inactive) in the assay on K562. The GI50 is > 10 µM (inactive) in the assay with KM12; > 6.4 µM (inactive) in the assay with Malme-3M; > 4.37 µM (inactive) with NCI-H23; 1 µM (active) with NCI-H522; > 5.52 µM (inactive) in the assay on OVCAR-3; > 10 µM (inactive) with OVCAR-5. Besides, the GI50 was 2.18 µM (inactive) in the assay on RPMI-8226; > 10 µM (inactive) in the assay on SF-539; > 10 µM (inactive) in the assay with SK-MEL-28; > 10 µM (inactive) with SK-OV-3; > 10 µM (inactive) in the assay on SNB-19; > 10 µM (inactive) in the assay on U-251. The figures for the GI50 in the assay on UACC-257 and in the assay with UACC-62 were > 10 µM (inactive) and > 6.58 µM (inactive), respectively.

With `CN1CN(c2ccccc2)C2(CCN(C(=O)OC(C)(C)C)CC2)C1=O`, the GI50 in the assay with COLO 205 was > 100 µM (inactive); with DU-145 it was > 100 µM (inactive); with HCC 2998 it was > 100 µM (inactive); in the assay on HOP-92, 32.4 µM (inactive); in the assay on IGROV-1, > 100 µM (inactive); in the assay on K562 it was 75.3 µM (inactive). Moreover, the GI50 in the assay on KM12, in the assay on Malme-3M, in the assay on NCI-H23, in the assay on NCI-H522, in the assay with OVCAR-3 and in the assay with OVCAR-5 was > 100 µM (inactive) each time. The GI50 is 98.2 µM (inactive) with RPMI-8226; > 100 µM (inactive) with SF-539; > 100 µM (inactive) with SK-MEL-28; > 100 µM (inactive) in the assay with SK-OV-3; > 100 µM (inactive) with SNB-19; > 100 µM (inactive) with U-251. Moreover, the GI50 in the assay on UACC-257 and with UACC-62 was > 100 µM (inactive) throughout.

For the compound `CSC(SC)=C(C#N)C(=O)Nc1ccc(C)cc1`, the GI50 was > 100 µM (inactive) in the assay with COLO 205; > 100 µM (inactive) in the assay with DU-145; > 100 µM (inactive) in the assay with HCC 2998; 15.5 µM (inactive) in the assay with HOP-92; 61.4 µM (inactive) in the assay with IGROV-1; 75.3 µM (inactive) in the assay with K562. Moreover, the GI50 was > 100 µM (inactive) in the assay on KM12; > 100 µM (inactive) in the assay on Malme-3M; > 100 µM (inactive) in the assay on NCI-H23; 28.9 µM (inactive) in the assay with NCI-H522; > 100 µM (inactive) with OVCAR-3; > 100 µM (inactive) with OVCAR-5. For the same compound, the GI50 was 42.2 µM (inactive) with RPMI-8226; > 100 µM (inactive) in the assay with SF-539; > 100 µM (inactive) in the assay on SK-MEL-28; > 100 µM (inactive) in the assay with SK-OV-3; > 100 µM (inactive) in the assay with SNB-19; > 100 µM (inactive) in the assay with U-251. For the same compound, the GI50 in the assay with UACC-257 was > 100 µM (inactive); in the assay with UACC-62, 94.4 µM (inactive).

Take `S=C1SCN(Cc2ccco2)CN1c1ccc(Br)cc1`: the GI50 was 15.8 µM (inactive) in the assay on COLO 205; 26.2 µM (inactive) in the assay on DU-145; 14.5 µM (inactive) with HCC 2998; 20 µM (inactive) in the assay on HOP-92; 16.4 µM (inactive) in the assay with IGROV-1; 2.45 µM (inactive) in the assay on K562. Moreover, the GI50 is 11.1 µM (inactive) with KM12; 17.4 µM (inactive) in the assay on Malme-3M; 14.7 µM (inactive) with NCI-H23; 10.3 µM (inactive) with NCI-H522; 7.76 µM (inactive) with OVCAR-3; 16.8 µM (inactive) with OVCAR-5. Moreover, the GI50 with RPMI-8226 was 15.4 µM (inactive); in the assay with SF-539, 14.5 µM (inactive); with SK-MEL-28, 17.8 µM (inactive); in the assay on SK-OV-3 it was 25.1 µM (inactive); in the assay with SNB-19, 21.8 µM (inactive); in the assay with U-251 it was 21.9 µM (inactive). The GI50 with UACC-257 was 15.6 µM (inactive); in the assay on UACC-62, 2.94 µM (inactive).

`CCC(C)C1NC(=O)C(NC(=O)c2c3nc4c(C(=O)NC5C(=O)NC(C(C)CC)C(=O)N6CCCC6C(=O)N(C)CC(=O)N(C)C(C(C)C)C(=O)OC5C)ccc(C)c4oc-3c(C)c(=O)c2N)C(C)OC(=O)C(C(C)C)N(C)C(=O)CN(C)C(=O)C2CCCN2C1=O` (stereo not given) (I: TIP[Sar][NMeV] / II: TIP[Sar][NMeV]; ester I:1-I:C, II:1-II:C; linker I:N-II:N via Actinocin(1to9); configuration not given here): the concentration for 50% growth inhibition (GI50) in the assay with COLO 205 is < 0.0001 µM (active); in the assay on DU-145, 0.011 µM (active); with HCC 2998, 0.013 µM (active); in the assay on HOP-92 it was 0.00255 µM (active); in the assay on IGROV-1, < 0.0001 µM (active); in the assay with K562 it was < 0.0001 µM (active). Besides, the GI50 in the assay with KM12 is 0.00107 µM (active); with Malme-3M, 0.000156 µM (active); in the assay with NCI-H23 it was 0.00133 µM (active); in the assay with NCI-H522, < 0.0001 µM (active); with OVCAR-3, 0.00184 µM (active); with OVCAR-5, 0.00459 µM (active). For the same compound, the concentration for 50% growth inhibition (GI50) is 0.000143 µM (active) with RPMI-8226; < 0.0001 µM (active) in the assay with SF-539; 0.00011 µM (active) in the assay with SK-MEL-28; 0.0208 µM (active) in the assay with SK-OV-3; < 0.0001 µM (active) with SNB-19; < 0.0001 µM (active) in the assay on U-251. The values for the 50% growth inhibitory concentration (GI50) in the assay on UACC-257 and with UACC-62 were < 0.0001 µM (active) and 0.000169 µM (active), respectively.

With `COc1c(C(CC(C)C)OC(C)=O)ccc2c1C(=O)OCc1cc(C)cc(O)c1O2` (stereo not given), the GI50 in the assay on COLO 205 was 17.6 µM (inactive); in the assay on DU-145, 12.5 µM (inactive); in the assay with HCC 2998, 12.8 µM (inactive); with HOP-92, 11.9 µM (inactive); with IGROV-1 it was 16.6 µM (inactive); in the assay with K562, > 100 µM (inactive). Further, the GI50 in the assay on KM12 is 19.3 µM (inactive); in the assay on Malme-3M, 16.1 µM (inactive); with NCI-H23, 10.3 µM (inactive); in the assay on NCI-H522 it was 13.2 µM (inactive); in the assay on OVCAR-3, 10.5 µM (inactive); in the assay with OVCAR-5, 15.1 µM (inactive). The GI50 with RPMI-8226 was > 100 µM (inactive); in the assay on SF-539 it was 18.2 µM (inactive); in the assay with SK-MEL-28 it was 15.8 µM (inactive); with SK-OV-3 it was 15.8 µM (inactive); with SNB-19 it was 14.8 µM (inactive); in the assay on U-251, 14.9 µM (inactive). The GI50 in the assay with UACC-257 was 8.47 µM (inactive); in the assay with UACC-62, 12.7 µM (inactive).

For the compound `CNC(=O)N(CCC#N)CCCN(C(=O)NC)c1ccccc1`, the GI50 with COLO 205, in the assay on DU-145, in the assay on HCC 2998, in the assay on HOP-92, in the assay on IGROV-1 and in the assay with K562 was > 100 µM (inactive) throughout. The GI50 in the assay with KM12 was > 100 µM (inactive); in the assay on Malme-3M it was 51.4 µM (inactive); in the assay on NCI-H23, > 100 µM (inactive); in the assay on NCI-H522, > 100 µM (inactive); in the assay on OVCAR-3, > 100 µM (inactive); in the assay on OVCAR-5, > 100 µM (inactive). In addition, the GI50 in the assay on RPMI-8226, with SF-539, with SK-MEL-28, in the assay on SK-OV-3, with SNB-19 and with U-251 was > 100 µM (inactive) each time. Also, the GI50 with UACC-257 and in the assay with UACC-62 was > 100 µM (inactive) in each case.

Take `O=C(CCC(NC(=O)OCc1ccccc1)C(=O)OCc1ccccc1)Nc1ccc(OCc2ccccc2)cc1` (stereo not given): the GI50 is 25.8 µM (inactive) in the assay on COLO 205; > 31.6 µM (inactive) in the assay with DU-145; > 31.6 µM (inactive) in the assay with HCC 2998; > 31.6 µM (inactive) in the assay on HOP-92; > 31.6 µM (inactive) in the assay with IGROV-1; 27.2 µM (inactive) with K562. Further, the GI50 with KM12 was > 31.6 µM (inactive); in the assay with Malme-3M it was > 31.6 µM (inactive); with NCI-H23, 16.3 µM (inactive); with NCI-H522 it was > 100 µM (inactive); in the assay on OVCAR-3, > 84.1 µM (inactive); in the assay on OVCAR-5, > 100 µM (inactive). In addition, the GI50 is > 10 µM (inactive) in the assay on RPMI-8226; > 31.6 µM (inactive) in the assay with SF-539; > 31.6 µM (inactive) with SK-MEL-28; > 31.6 µM (inactive) with SK-OV-3; 21.7 µM (inactive) in the assay with SNB-19; 17.1 µM (inactive) in the assay on U-251. The GI50 in the assay with UACC-257 and with UACC-62 was > 31.6 µM (inactive) each time.

As for `Cc1cc(C)nc(NS(=O)(=O)c2ccc(NC(=O)c3ccc4nc5ccccc5c(Nc5ccc(S(=O)(=O)N=C(N)N)cc5)c4c3)cc2)n1`, the GI50 in the assay on COLO 205 was > 100 µM (inactive); in the assay with DU-145, > 100 µM (inactive); with HCC 2998, > 100 µM (inactive); in the assay on HOP-92 it was 32.4 µM (inactive); in the assay on IGROV-1, > 100 µM (inactive); in the assay with K562 it was 46.6 µM (inactive). In addition, the GI50 in the assay on KM12, with Malme-3M, with NCI-H23, in the assay with NCI-H522, in the assay with OVCAR-3 and with OVCAR-5 was > 100 µM (inactive) each time. The GI50 in the assay on RPMI-8226, with SF-539, in the assay with SK-MEL-28, with SK-OV-3, with SNB-19 and in the assay with U-251 was > 100 µM (inactive) throughout. The GI50 in the assay on UACC-257 and in the assay on UACC-62 was > 100 µM (inactive) throughout.
